These results are taken from patent publication US8618095B2 (Rigel Pharmaceuticals, Inc., priority 2010, dated 2013).

For this experiment, the system named is Human mast cells (CHMC). The experiment can be described thus: LD Tryptase release assay in CHMC (mast cell activation induced by FcγR cross-linking). Type of experiment: cell-based. The settings on record: Homo sapiens, Mast cell, anti-IgG stimulation, activity of tryptase released upon degranulation. The method, boiled down:
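Mast cells derived from CD38-negative progenitors were preincubated 1 h at 37 °C with compound in HEPES-buffered saline (pH 7.4, 0.1% BSA, compound diluted in buffer with 2% MeOH/1% DMSO). Cells were then stimulated 60 min with anti-human IgG (final 1 μg/mL). Released tryptase was measured on Z-Ala-Lys-Arg-AMC (30 min, room temperature, 355/460 nm) to give the IC50.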
Turning to `CC1(C)Oc2ccc(Nc3nc(Nc4cc(F)c(N5CCOCC5)c(F)c4)ncc3F)nc2NC1=O` [Compound 31, N4-(2,2-dimethyl-3,4-dihydro-3-oxo-2H-pyrido[3,2-b][1,4]oxazin-6-yl)-5-fluoro-N2-[3,5-difluoro-4-morpholinophenyl]-2,4-pyrimidinediamine], the IC50 was 1000 to 100000 nM. Regarding `O=C1COc2ccc(Nc3nc(Nc4ccc(N5CCO[C@H](CCO)C5)cc4)ncc3F)nc2N1` (stereo in doubt) [Compound 125, N4-(3,4-dihydro-3-oxo-2H-pyrido[3,2-b][1,4]oxazin-6-yl)-5-fluoro-N2-[4-((2-hydroxyethyl)morpholino)phenyl]-2,4-pyrimidinediamine], the IC50 is under 100 nM.

As for `COc1cc(Nc2ncc(F)c(Nc3ccc4c(n3)NC(=O)C(C)(C)O4)n2)ccc1N1CCOCC1` [Compound 27, N4-(2,2-dimethyl-3,4-dihydro-3-oxo-2H-pyrido[3,2-b][1,4]oxazin-6-yl)-5-fluoro-N2-[3-methoxy-4-morpholinophenyl]-2,4-pyrimidinediamine], the IC50 was under 100 nM. As to `CC1(C)Oc2ccc(Nc3nc(Nc4ccc(N5CCC(F)(F)CC5)c(F)c4)ncc3F)nc2NC1=O` [Compound 30, N4-(2,2-dimethyl-3,4-dihydro-3-oxo-2H-pyrido[3,2-b][1,4]oxazin-6-yl)-5-fluoro-N2-[3-fluoro-4-(4,4-difluoro-1-piperidinyl)phenyl]-2,4-pyrimidinediamine], the IC50 was 1000 to 100000 nM. The value for `O=C1COc2ccc(Nc3nc(Nc4ccc(N5CCCOCC5)cc4)ncc3F)nc2N1` [Compound 44, N4-(3,4-dihydro-3-oxo-2H-pyrido[3,2-b][1,4]oxazin-6-yl)-5-fluoro-N2-[4-homomorpholinophenyl]-2,4-pyrimidinediamine] was 100 to 500 nM; that for `COc1cc(Nc2ncc(F)c(Nc3ccc4c(n3)NC(=O)C(C)(C)O4)n2)cnc1N1CCOCC1` [Compound 21, N4-(2,2-dimethyl-3,4-dihydro-3-oxo-2H-pyrido[3,2-b][1,4]oxazin-6-yl)-5-fluoro-N2-[5-methoxy-6-morpholinopyridin-3-yl]-2,4-pyrimidinediamine] was 100 to 500 nM. The figure for `C[C@@H]1COCCN1c1ccc(Nc2ncc(F)c(Nc3ccc4c(n3)NC(=O)C(C)(C)O4)n2)cn1` [Compound 50, N4-(2,2-dimethyl-3,4-dihydro-3-oxo-2H-pyrido[3,2-b][1,4]oxazin-6-yl)-5-fluoro-N2-[6-((3R)-3-methylmorpholino)pyridin-3-yl]-2,4-pyrimidinediamine] is under 100 nM; for `CC1(C)Oc2ccc(Nc3nc(Nc4ccc(N5CCC(C(N)=O)CC5)cc4)ncc3F)nc2NC1=O` [Compound 150, N4-(2,2-dimethyl-3,4-dihydro-3-oxo-2H-pyrido[3,2-b][1,4]oxazin-6-yl)-5-fluoro-N2-[4-(4-(aminocarbonyl)piperidin-1-yl)phenyl]-2,4-pyrimidinediamine] it is 100 to 500 nM; for `COC1CCN(c2ccc(Nc3ncc(F)c(Nc4ccc5c(n4)NC(=O)C(C)(C)O5)n3)cc2)CC1` [Compound 152, N4-(2,2-dimethyl-3,4-dihydro-3-oxo-2H-pyrido[3,2-b][1,4]oxazin-6-yl)-5-fluoro-N2-[4-(4-methoxypiperidin-1-yl)phenyl]-2,4-pyrimidinediamine] it is under 100 nM. The value for `CCOCC1CN(c2ccc(Nc3ncc(F)c(Nc4ccc5c(n4)NC(=O)C(C)(C)O5)n3)cc2)CCO1` (stereo in doubt) [Compound 42, N4-(2,2-dimethyl-3,4-dihydro-3-oxo-2H-pyrido[3,2-b][1,4]oxazin-6-yl)-5-fluoro-N2-[4-(((2S)-2-ethoxymethyl)morpholino)phenyl]-2,4-pyrimidinediamine] was 100 to 500 nM; that for `CC1(C)Oc2ccc(Nc3nc(Nc4ccc(N5CCOCC5CO)c(F)c4)ncc3F)nc2NC1=O` (centres unmarked) [Compound 89, N4-(2,2-dimethyl-3,4-dihydro-3-oxo-2H-pyrido[3,2-b][1,4]oxazin-6-yl)-5-fluoro-N2-[3-fluoro-4-(3-(hydroxymethyl)morpholino)phenyl]-2,4-pyrimidinediamine] was 100 to 500 nM.
